We go through 14 molecules from patent US10689354B2, “Aminoazole derivative” (Teijin Pharma Limited, priority 2015, dated 2020).

The experiment addresses T1, androgen receptor (AR-LBD) (Rattus norvegicus, UniProt P15207).
T1 construct: 5 μL of 2×AR-LBD/Fluoromone AL Red Complex contained in the kit; purchased Invitrogen
T1 sequence (P15207 651-882 limits assumed): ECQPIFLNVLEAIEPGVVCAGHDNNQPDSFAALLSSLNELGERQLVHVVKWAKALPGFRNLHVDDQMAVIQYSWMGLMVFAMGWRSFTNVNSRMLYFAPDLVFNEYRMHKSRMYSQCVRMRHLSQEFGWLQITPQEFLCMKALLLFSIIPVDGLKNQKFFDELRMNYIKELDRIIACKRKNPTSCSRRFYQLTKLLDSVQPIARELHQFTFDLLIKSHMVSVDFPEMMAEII
In words: Evaluation of androgen receptor affinity (PolarScreen Androgen Receptor Competitor Assay Kit, Red; fluorescence polarization). The conditions noted are these: 22° C. for 5 hours, relative to binding rate of 1 μM DHT, read-out: AR affinity (pEC50) (converted). An outline of the steps:
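pEC50 values reflect tracer displacement from AR-LBD (Fluoromone AL Red complex) measured by fluorescence polarization after 5 h at 22° C, normalized to 1 μM DHT and fitted with a 4-parameter model.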
Background: Polarisation of emitted light reports the rotation of a fluorescent probe.

Turning to `Cc1sc(N(CC(=O)N(C)C2CCCCC2)c2ccc(C#N)cc2)nc1C(=O)NS(C)(=O)=O` [Compound 424, 2-(4-cyano-N-[2-[cyclohexyl(methyl)amino]-2-oxo-ethyl]anilino)-5-methyl-N-methylsulfonyl-thiazole-4-carboxamide], the EC50 was above 2000 nM.
The result for `Cc1sc(N(CC(=O)Nc2ccccc2)c2ccc(C#N)cc2)nc1C(=O)NS(C)(=O)=O` [Compound 425, 2-(N-(2-anilino-2-oxo-ethyl)-4-cyano-anilino)-5-methyl-N-methylsulfonyl-thiazole-4-carboxamide] reads 1260 nM; that for `Cc1sc(N(CC(=O)N(C)c2ccccc2)c2ccc(C#N)cc2)nc1C(=O)NS(C)(=O)=O` [Compound 426, 2-(4-cyano-N-[2-(N-methylanilino)-2-oxo-ethyl]anilino)-5-methyl-N-methylsulfonyl-thiazole-4-carboxamide], above 2000 nM.
On to `Cc1sc(N(CC2CCCC(O)C2)c2ccc(C#N)cc2)nc1C(=O)NS(C)(=O)=O` (centres unmarked) [Compound 427, 2-[4-cyano-N-[(3-hydroxycyclohexyl)methyl]anilino]-5-methyl-N-methylsulfonyl-thiazole-4-carboxamide], for which the EC50 was above 2000 nM.
The result for `Cc1sc(N(Cc2ccccc2)c2ccccc2)nc1C(=O)NS(C)(=O)=O` [Compound 428, 2-(N-benzylanilino)-5-methyl-N-methylsulfonyl-thiazole-4-carboxamide] reads above 2000 nM; that for `Cc1sc(N(Cc2ccccc2)c2ccc(C#N)cc2)nc1C(=O)NS(=O)(=O)CCN1CCOCC1` [Compound 429, 2-(N-benzyl-4-cyano-anilino)-5-methyl-N-(2-morpholinoethylsulfonyl)thiazole-4-carboxamide], above 2000 nM; that for `Cc1sc(N(Cc2ccccc2)c2ccc(C#N)cc2)nc1C(=O)NS(=O)(=O)CCN1CCCCC1` [Compound 430, 2-(N-benzyl-4-cyano-anilino)-5-methyl-N-[2-(1-piperidyl)ethylsulfonyl]thiazole-4-carboxamide], above 2000 nM.
On to `Cc1sc(N(CC(=O)C2CCCCC2)c2ccc(C#N)cc2)nc1C(=O)NS(C)(=O)=O` [Compound 432, 2-(4-cyano-N-(2-cyclohexyl-2-oxo-ethyl)anilino)-5-methyl-N-methylsulfonyl-thiazole-4-carboxamide], for which the EC50 was above 2000 nM.
With `Cc1sc(N(CCCc2ccccc2)c2ccc(C#N)cc2)nc1C(=O)NS(C)(=O)=O` [Compound 433, 2-[4-cyano-N-(3-phenylpropyl)anilino]-5-methyl-N-methylsulfonyl-thiazole-4-carboxamide], the EC50 was above 2000 nM.
The result for `Cc1sc(N(CC(=O)c2ccccc2)c2ccc(C#N)cc2)nc1C(=O)NS(C)(=O)=O` [Compound 434, 2-(4-cyano-N-phenacyl-anilino)-5-methyl-N-methylsulfonyl-thiazole-4-carboxamide] reads above 2000 nM; that for `Cc1ncc(CN(c2ccc(C#N)cc2)c2nc(C(=O)NS(C)(=O)=O)c(C)s2)s1` [Compound 435, 2-[4-cyano-N-[(2-methylthiazol-5-yl)methyl]anilino]-5-methyl-N-methylsulfonyl-thiazole-4-carboxamide], 631 nM; that for `Cc1sc(N(CC2CCC2)c2ccc(C#N)cc2)nc1C(=O)NS(C)(=O)=O` [Compound 440, 2-[4-cyano-N-(cyclobutylmethyl)anilino]-5-methyl-N-methylsulfonyl-thiazole-4-carboxamide], 501 nM.
The value for `Cc1sc(N(CCc2cccc3ccccc23)c2ccc(C#N)cc2)nc1C(=O)NS(C)(=O)=O` [Compound 441, 2-[4-cyano-N-[2-(1-naphthyl)ethyl]anilino]-5-methyl-N-methylsulfonyl-thiazole-4-carboxamide] was 251 nM.
With `COC(C)(C)CCN(c1ccc(C#N)cc1)c1nc(C(=O)NS(C)(=O)=O)c(C)s1` [Compound 444, 2-(4-cyano-N-(3-methoxy-3-methyl-butyl)anilino)-5-methyl-N-methylsulfonyl-thiazole-4-carboxamide], the EC50 was 1260 nM.
